Among the data in PubChem BioAssay (NCI) are TGI and GI50 values, retold here.

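In this assay, cells in 96-well plates receive the compound at five concentrations for 48 hours. Endpoints are linearly interpolated between the surrounding concentrations. GI50: concentration for 50% inhibition of growth. The concentration for full growth arrest is given as TGI.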

Some test systems named below: BT-549 breast; MALME-3M melanoma; NCI-H23 lung; MCF7 breast; T-47D breast; HT29 colon; RPMI-8226 leukemia; SNB-75 CNS; SK-MEL-5 melanoma; HCC-2998 colon.
Holding throughout (assay): NCI anticancer screen, dose series, 48 h

Take `O=C(N/N=C/c1ccc([N+](=O)[O-])o1)c1ccc(C(=O)N/N=C/c2ccc([N+](=O)[O-])o2)cc1`: the TGI in the test with BT-549 breast is > 100 µM; with MALME-3M melanoma, 48.7 µM; in the test with NCI-H23 lung it was > 100 µM; in the test on MCF7 breast it was 48.9 µM; with T-47D breast it was > 100 µM; with HT29 colon, > 100 µM. The TGI is 26.1 µM with RPMI-8226 leukemia, > 100 µM with SNB-75 CNS and 55.6 µM in the test on SK-MEL-5 melanoma.

With `Cn1c(-c2cccs2)cc(-c2cccs2)c1-c1ccco1`, the TGI is > 100 µM in the test with BT-549 breast; > 25 µM with NCI-H23 lung; 5.41 µM in the test with MCF7 breast; 12 µM with T-47D breast; > 100 µM in the test on HT29 colon; > 100 µM in the test with RPMI-8226 leukemia. The TGI in the test with HCC-2998 colon, in the test with SNB-75 CNS and in the test on SK-MEL-5 melanoma was > 100 µM throughout.

With `N#CC(=C1CCCCC1)c1nc2ccccc2o1`, the TGI with BT-549 breast is 89.1 µM; with MALME-3M melanoma, > 100 µM; in the test with NCI-H23 lung, > 100 µM; in the test with MCF7 breast, > 100 µM; with T-47D breast, > 100 µM; with HT29 colon it was > 100 µM. Further, the TGI was 71.3 µM with RPMI-8226 leukemia, > 100 µM in the test with HCC-2998 colon and > 100 µM in the test on SK-MEL-5 melanoma.

As to `[N-]=[N+]=Nc1c(C=O)c(=O)n(-c2ccccc2)c2ccccc12`, the TGI with BT-549 breast was > 100 µM; in the test on MALME-3M melanoma, 45.3 µM; with NCI-H23 lung, 38 µM; with MCF7 breast, 64.2 µM; with T-47D breast, 61.4 µM; in the test on HT29 colon, 55.1 µM. In addition, the TGI in the test on HCC-2998 colon turned out to be 40.1 µM; in the test on SNB-75 CNS it was 94.2 µM; in the test on SK-MEL-5 melanoma, 27.5 µM.

`CCCCSC1=N/C(=C\c2ccc(N(C)C)cc2)C(NN)=N1`: the TGI in the test with BT-549 breast, with MALME-3M melanoma, in the test with NCI-H23 lung, in the test with MCF7 breast, in the test on T-47D breast and in the test on HT29 colon was > 100 µM in each case. Further, the TGI in the test on RPMI-8226 leukemia, in the test with HCC-2998 colon and in the test on SNB-75 CNS was > 100 µM throughout.

As to `O=C1NC(N2CCCCC2)=N/C1=C\c1cccs1`, the TGI with BT-549 breast, in the test on MALME-3M melanoma, with NCI-H23 lung, in the test on MCF7 breast, with T-47D breast and in the test on HT29 colon was > 100 µM throughout. Moreover, the TGI in the test on RPMI-8226 leukemia and with HCC-2998 colon was > 100 µM in each case.

As for `Cc1ccc2c(sc(-c3ccc4c(c3)sc(-c3ccc5c(c3)sc(-c3ccc(N(C)C)cc3)[n+]5C)[n+]4C)[n+]2C)c1S(=O)(=O)O` (tested in a mixture with another compound), the TGI in the test with BT-549 breast, in the test on NCI-H23 lung, with MCF7 breast, with T-47D breast, with HT29 colon and in the test with RPMI-8226 leukemia was > 100 µM throughout. Moreover, the TGI with HCC-2998 colon, in the test with SNB-75 CNS and in the test with SK-MEL-5 melanoma was > 100 µM throughout.

As to `Cc1c2c(n(CCc3ccccc3)c1C)N(C)N=C(C#N)S2(=O)=O`, the TGI in the test on BT-549 breast, in the test with NCI-H23 lung, in the test on MCF7 breast, with T-47D breast, in the test on HT29 colon and in the test on RPMI-8226 leukemia was > 100 µM throughout. The TGI in the test on HCC-2998 colon, with SNB-75 CNS and in the test on SK-MEL-5 melanoma was > 100 µM in each case.

Consider `C[C@]12Cc3cnn(-c4ccc(F)cc4)c3NC1CC[C@@H]1C2CC[C@@]2(C)C1CC[C@@H]2O` (stereo not given in full), for which the TGI was found to be 13.4 µM with BT-549 breast; 23.7 µM in the test on MALME-3M melanoma; 18.7 µM with NCI-H23 lung; 36.7 µM with MCF7 breast; 17 µM with T-47D breast; 3.81 µM in the test on HT29 colon. In addition, the TGI stood at 18.3 µM with HCC-2998 colon, 13.3 µM with SNB-75 CNS and 15 µM in the test with SK-MEL-5 melanoma.

Turning to `CC1(C)CC23CC(C)(C)c4cccc(c42)OCc2ccc4ccc5ccc(nc5c4n2)COc2cccc1c23`, the TGI in the test on BT-549 breast, in the test on MCF7 breast, with T-47D breast, with HT29 colon, in the test with RPMI-8226 leukemia and in the test on HCC-2998 colon was > 50 µM in each case. Moreover, the TGI in the test on SNB-75 CNS and in the test with SK-MEL-5 melanoma was > 50 µM in each case.

Regarding `CC1(C)CC(=O)C2=C(C1)NC1=C(C(=O)CC(C)(C)C1)C2c1ccc([N+](=O)[O-])cc1`, the TGI in the test with BT-549 breast, in the test on NCI-H23 lung, with MCF7 breast, with T-47D breast, with HT29 colon and in the test with RPMI-8226 leukemia was > 100 µM throughout. Also, the TGI in the test with HCC-2998 colon is > 100 µM; in the test with SNB-75 CNS it was 69.6 µM; with SK-MEL-5 melanoma it was > 100 µM.

As for `CC=CCOc1cc(NC(=S)OC(C)C)ccc1Cl` (mixture of isomers), the TGI in the test with BT-549 breast stood at 38.6 µM; in the test with MALME-3M melanoma, 29.6 µM; in the test with NCI-H23 lung it was 35.1 µM; in the test with MCF7 breast, 38.2 µM; with T-47D breast, 35.7 µM; with HT29 colon, 28.7 µM. The TGI in the test with RPMI-8226 leukemia was > 100 µM; with HCC-2998 colon, 30.3 µM; in the test with SK-MEL-5 melanoma, 33.1 µM.

In the case of `OC[C@]1(n2nc3ccccc3n2)OC[C@@H]1c1ccccc1`, the TGI with BT-549 breast was 99.5 µM; with MALME-3M melanoma, > 100 µM; in the test on NCI-H23 lung, > 100 µM; in the test with MCF7 breast, > 100 µM; with T-47D breast it was > 100 µM; in the test with HT29 colon, > 100 µM. The results for the TGI with RPMI-8226 leukemia, in the test with HCC-2998 colon and with SK-MEL-5 melanoma were 97.4 µM, > 100 µM and > 100 µM, respectively.

Take `COc1ccc2c(c1)/C(=C\c1c(C)nc3sc(C)cn13)C(=O)N2`: the TGI in the test on BT-549 breast was 45.8 µM; in the test with MALME-3M melanoma, > 100 µM; in the test on NCI-H23 lung, > 70.7 µM; in the test on MCF7 breast, > 100 µM; with T-47D breast it was > 100 µM; in the test with HT29 colon, 7.83 µM. Also, the TGI is > 64.8 µM with RPMI-8226 leukemia, 3.85 µM with HCC-2998 colon and 4.62 µM in the test on SK-MEL-5 melanoma.

For the compound `COc1cc(/C=C2/SC(c3ccccc3)N(c3ccccc3)C2=O)cc(OC)c1OC` (stereo not given), the TGI with BT-549 breast was > 100 µM; in the test on MALME-3M melanoma, > 100 µM; with NCI-H23 lung it was > 100 µM; in the test on MCF7 breast it was > 100 µM; in the test with T-47D breast it was > 100 µM; in the test with RPMI-8226 leukemia, 66.6 µM. For the same compound, the TGI with HCC-2998 colon and with SK-MEL-5 melanoma was > 100 µM in each case.

As to `Oc1ccccc1C=Nc1ccc(-c2nc3ccccc3[nH]2)cc1`, the TGI with BT-549 breast was 54.4 µM; with MALME-3M melanoma, > 100 µM; with NCI-H23 lung, > 100 µM; in the test with MCF7 breast it was > 100 µM; in the test with T-47D breast, 66.5 µM; in the test on HT29 colon, > 100 µM. For the same compound, the TGI with RPMI-8226 leukemia, with SNB-75 CNS and with SK-MEL-5 melanoma was > 100 µM throughout.

As for `Cc1ccc2c(c1)C(=O)N1CCC[C@H]1C=N2`, the TGI in the test with BT-549 breast is 84.7 µM; with MALME-3M melanoma it was 35.2 µM; with NCI-H23 lung it was 39.7 µM; with MCF7 breast it was > 76.5 µM; in the test on T-47D breast, > 100 µM; with HT29 colon it was > 55.6 µM. Also, the TGI in the test on RPMI-8226 leukemia was > 53.3 µM; in the test with HCC-2998 colon, 45.6 µM; with SK-MEL-5 melanoma it was 26.7 µM.

As to `O=C(O)CNc1ccc(C(=O)O)cc1`, the TGI in the test on BT-549 breast, in the test with MALME-3M melanoma, in the test with NCI-H23 lung, in the test with MCF7 breast, in the test on T-47D breast and in the test with HT29 colon was > 100 µM each time. In addition, the TGI with RPMI-8226 leukemia, with SNB-75 CNS and in the test with SK-MEL-5 melanoma was > 100 µM each time.

Turning to `COC(=O)C1c2c(c3ccccc3n2C(=O)OC)CCN2CCC1C(S(=O)(=O)c1ccccc1)C2=O` (stereo not given), the TGI with BT-549 breast, with MALME-3M melanoma, in the test with NCI-H23 lung, with MCF7 breast, with T-47D breast and in the test with HT29 colon was > 100 µM throughout. The TGI with RPMI-8226 leukemia, with SNB-75 CNS and in the test with SK-MEL-5 melanoma was > 100 µM throughout.

As to `C/C(=N\Nc1nc2ccccc2n1C)c1cnccn1`, the TGI with BT-549 breast was > 100 µM; in the test with MALME-3M melanoma, > 100 µM; in the test with NCI-H23 lung, > 100 µM; with MCF7 breast it was > 100 µM; with T-47D breast, > 100 µM; with HT29 colon it was > 42.5 µM. Further, the TGI was > 100 µM in the test on HCC-2998 colon, > 100 µM with SNB-75 CNS and 10 µM with SK-MEL-5 melanoma.

Turning to `Nc1nc(Cl)cc(OCC2(CO)CC(OCc3ccccc3)C2)n1` (stereo not given), the GI50 in the test with BT-549 breast was 46 µM; in the test with MALME-3M melanoma, 84.5 µM; in the test on NCI-H23 lung it was 36.5 µM; in the test with MCF7 breast, 46.2 µM; in the test on T-47D breast it was 18.9 µM; in the test on HT29 colon it was 33.9 µM. Moreover, the GI50 is 26.7 µM in the test on RPMI-8226 leukemia, 27.9 µM with SNB-75 CNS and 23.9 µM in the test with SK-MEL-5 melanoma. Besides, the TGI with T-47D breast was determined as 92.3 µM.

`O=C1N2CCc3c([nH]c4ccccc34)C23CC2CCCCC12S3` (stereo not given): the TGI with BT-549 breast, in the test on MALME-3M melanoma, in the test on NCI-H23 lung, in the test with MCF7 breast, in the test on T-47D breast and in the test with HT29 colon was > 100 µM in each case. Further, the TGI in the test with RPMI-8226 leukemia and with SK-MEL-5 melanoma was > 100 µM throughout.
